Data as given in patent US9428732B2, “Compositions and methods for differentiating pluripotent stem cells into primitive blood cells and uses thereof” (Primorigen Biosciences, Inc., priority 2011, dated 2016).

Key:
Type in all cases: cell-based, human
[1] = test system: hematopoietic progenitor cells differentiated from iPS cells; assay: Colony Forming Unit (CFU) assay in methyl cellulose with DEAB; details: 10 µM DEAB; 14 days MethoCult
Method: The differentiation cultures were trypsinized at the indicated time points and single-cell suspensions were generated following trypsinization. For the Colony Forming Unit (CFU) assays using methyl cellulose cultures, 25% of the cells were plated in 2 ml of MethoCult H4435 (STEMCELL Technologies, Vancouver, BC) in six-well plates. Alternatively, sorted CD45+, CD43+, CD34+, 7AAD-cells were sorted and plated at 500 cells per 2 ml Methocult media. Cells were incubated for 14 days in a humidified incubator at 37° C. with 5% CO2 and evaluated for colonies by bright-field microscopy (Zeiss (Oberkochen, Germany, www.zeiss.com) Axiovert 200 with a Zeiss Axiocam), Cells were resuspended in PBS supplemented with 2% FBS. For the lymphoid myeloid differentiation assays, either CD45+, CD43+, CD34+, 7AAD-hematopoietic progenitors, or CD45+, CD43+, CD34+, CD38−, CD90+, CD45RA− phenotypic HSCs were plated at 20-40 cells per well onto OP9 and OP9delta feeder lines for B-cell and T-cell differentiation, respectively, as previously described (Nozad Charoudeh H, Tang Y, Cheng M, Cilio C M, Jacobsen S E, Sitnicka E., Identification of an NK/T cell-restricted progenitor in adult bone marrow contributing to bone marrow- and thymic-dependent NK cell, Blood, 2010 Jul. 15; 116(2):183-92. NK cell differentiation as well as myeloid cell differentiation was also detected in this differentiation system. […]

[2] = test system: Pluripotent stem cells (iPS and ES); assay: Effects of DEAB on blood cell phenotypes, flow cytometry at Day 16; details: DEAB 10 uM vs DMSO
Method: (§1) Cells from the differentiation cultures were collected at time points indicated and washed in phosphate-buffered saline (PBS) supplemented with 2% FBS. Adherent cells were individualized using TrypLE (Life Technologies, Carlsbad Calif.), passed through a 27.5-gauge needle and filtered through a 40-70 μm cell strainer (BD Falcon, San Diego, Calif., www.bdbiosciences.com). Cells were treated with 7-aminoactinomycin D (7AAD) before analysis, and positive cells were gated out of results. Cells were stained with fluorescence-conjugated antibodies for the hematopoietic stem and progenitor cell markers CD45, CD43, CD34, CD38, CD90; CD45RA. Cells were analyzed on a FACS Canto (BD, Franklin Lakes, N.J., www.bd.com).
Cells were counted using the FACS cell counter feature (BD) or by cytometer using a bright-field microscope to obtain viable cell numbers. The total numbers of cells of each subpopulation were calculated by multiplying the number of cells by the proportion of cells of that lineage as determined by flow cytometry. Statistical analyses of data points and error bars of this study show mean and standard deviation, with statistical significance assessed by the Student's t-test.
From Example 1, DEAB was selected to move forward into an experiment further establishing the phenotypes of blood cells emerging from the differentiation in order to identify at what stage of differentiation DEAB may exert its effects. Pluripotent stem cells (iPS and ES) were grown and induced to produce embryoid bodies on Day 8 as described. The EBs were then exposed to Differentiation Medium 1 for a total of 8 days with partial medium changes made every other day as described. Cells were harvested on Day 16 and washed in phosphate-buffered saline (PBS) supplemented with 2% FBS. Adherent cells were individualized using TrypLE (Life Technologies, Carlsbad Calif.), passed through a 27.5-gauge needle and filtered through a 40-70 μm cell strainer (BD Falcon, San Diego, Calif., www.bdbiosciences.com). Cells were treated with 7-aminoactinomycin D before analysis and positive cells were gated out of results. Cells were stained with fluorescence conjugated antibodies for the hematopoietic stem and progenitor cell markers CD45, CD43, CD34, CD38, CD90, CD45RA. Cells were analyzed on an FACS Canto (BD, Franklin Lakes, N.J., www.bd.com).

[3] = test system: ES and iPS cells; assay: Small molecule screen, FACS of cells differentiated from pluripotent stem cells; details: relative to DMSO control, DEAB 10 μM, rapamycin 0.1 μM
Method: as §1
A small molecule screen was performed to identify compounds that improve the output of hematopoietic progenitor cells (HPCs; CD45+, CD43+, CD34+) and phenotypic hematopoietic stem cells (HSCs; CD45+, CD43+, CD34+, CD38−, CD90+, CD45RA−) differentiated from pluripotent stem cells. Molecules targeting pathways known or suspected of being important in hematopoiesis were screened. […] Cells were analyzed using fluorescence activated cell sorting (FACS; FIGS. 3A, 3B, and 3C) and CFU-GEMM assays (FIG. 3D). […]

SMILES: CCN(CC)c1ccc(C=O)cc1 [DEAB, 4-diethylaminobenzaldehyde]
- levels of all four major CFU assay types (CFU-G, CFU-M, CFU-GEMM, BFU-E) [1]: measurable levels
- total number of colonies vs cells not differentiated in the presence of DEAB (DMSO control) [1]: more than double
- blood cells (CD45+, CD43+) ([2]; Day 16): modestly higher values
- hematopoietic progenitor cells (CD45+, CD43+, CD34+) ([2]; Day 16): modestly higher values
- population of cells exhibiting a hematopoietic stem cell phenotype (CD45+, CD43+, CD34+, CD38−, CD90+, CD45RA−) ([2]; Day 16): substantial improvement
- total viable cells ([2]; Day 16): modestly higher values
- increase in generation of the phenotypic stem cell phenotype ([2]; FIGS. 4B and 4D): over 3 fold
- output of total blood cells (CD45+, CD43+) ([3]; FIG. 3C): increased
- output of HSCs (CD45+, CD43+, CD34+, CD38−, CD90+, CD45RA−) ([3]; FIGS. 3A and B): increased
